From ChEMBL document CHEMBL1126112 (J Med Chem, 1992)

Assays:
Cavia porcellus = species: Cavia porcellus; assay: Tested for naloxone pA2 activity in guinea pig ileum; type: functional
[1] = target: Kappa-type opioid receptor (Cavia porcellus, UniProt P41144); assay: Tested for inhibitory effect on binding of [3H]bremazocine to opioid receptor kappa in guinea pig cerebellum membranes; type: cell membranes, Membrane
[2] = target: Opioid receptors; mu/kappa/delta (Homo sapiens, UniProt P41145+P41143+P35372); assay: Tested for opioid receptor agonistic activity in guinea pig ileum; type: functional, tissue-based, Cavia porcellus; details: target entry is the homologue from another species
Mu-type opioid receptor = Mu-type opioid receptor (Cavia porcellus, UniProt P97266); assay: Tested for inhibitory effect on binding of [3H]DAMGO to opioid receptor mu in guinea pig cerebellum membranes; type: cell membranes, Membrane
Mu-type opioid receptor, sequence (P97266 whole entry): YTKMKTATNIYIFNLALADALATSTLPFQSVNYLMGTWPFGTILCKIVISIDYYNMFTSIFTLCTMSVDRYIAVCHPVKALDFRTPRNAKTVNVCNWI

Kappa-type opioid receptor, sequence (P41144 whole entry): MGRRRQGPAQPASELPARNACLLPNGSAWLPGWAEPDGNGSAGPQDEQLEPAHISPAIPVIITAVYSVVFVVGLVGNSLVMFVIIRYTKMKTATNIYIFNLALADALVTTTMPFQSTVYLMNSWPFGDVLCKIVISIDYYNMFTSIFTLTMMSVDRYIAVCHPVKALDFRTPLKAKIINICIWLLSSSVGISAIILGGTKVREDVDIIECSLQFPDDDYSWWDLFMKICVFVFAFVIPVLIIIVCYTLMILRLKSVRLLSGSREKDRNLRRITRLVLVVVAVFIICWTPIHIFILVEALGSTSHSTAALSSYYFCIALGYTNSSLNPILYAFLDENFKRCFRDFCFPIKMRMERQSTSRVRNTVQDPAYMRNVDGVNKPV

Compound	Activity (Cavia porcellus)	Ki [1] [nM]	IC50 [2] [nM]	Ki (Mu-type opioid receptor) [nM]
C=CCN[C@@H](Cc1ccc(O)cc1)C(=O)NCC(=O)NCC(=O)N[C@@H](Cc1ccccc1)C(=O)N[C@@H](CC(C)C)C(=O)N[C@@H](CCCN=C(N)N)C(=O)N[C@@H](CCCN=C(N)N)C(=O)N[C@H](C(=O)N[C@@H](CCCN=C(N)N)C(=O)N1CCC[C@@H]1C(=O)N[C@@H](CCCCN)C(=O)O)[C@@H](C)CC	7.6			
CC[C@H](C)[C@H](NC(=O)[C@H](CCCN=C(N)N)NC(=O)[C@H](CCCN=C(N)N)NC(=O)[C@H](CC(C)C)NC(=O)[C@H](Cc1ccccc1)NC(=O)CNC(=O)CNC(=O)[C@@H](N)Cc1ccc(O)cc1)C(=O)N[C@@H](CCCN=C(N)N)C(=O)N1CCC[C@@H]1C(=O)N[C@@H](CCCCN)C(=O)O	7.2			
C=CCN(CC=C)[C@@H](Cc1ccc(O)cc1)C(=O)NCC(=O)NCC(=O)N[C@@H](Cc1ccccc1)C(=O)N[C@@H](CC(C)C)C(=O)N[C@@H](CCCN=C(N)N)C(=O)N[C@@H](CCCN=C(N)N)C(=O)N[C@H](C(=O)N[C@@H](CCCN=C(N)N)C(=O)N1CCC[C@@H]1C(=O)N[C@@H](CCCCN)C(=O)O)[C@@H](C)CC		3.6	687	31.7
CC[C@H](C)[C@H](NC(=O)[C@H](CCCN=C(N)N)NC(=O)[C@H](CCCN=C(N)N)NC(=O)[C@H](CC(C)C)NC(=O)[C@H](Cc1ccccc1)NC(=O)CNC(=O)CNC(=O)[C@H](Cc1ccc(O)cc1)NCC1CC1)C(=O)N[C@@H](CCCN=C(N)N)C(=O)N1CCC[C@@H]1C(=O)N[C@@H](CCCCN)C(=O)O	7.3	0.02	2.16	9.6
CN1CC[C@]23c4c5ccc(O)c4O[C@H]2[C@@H](O)C=C[C@H]3[C@H]1C5 [MORPHINE]	8.2			
